According to patent EP1157000B1 (Warner-Lambert Company LLC, priority 1999, dated 2001):

Assays:
BCATm = biological target: T1, BCATm (Homo sapiens, UniProt O15382); conditions: cited from earlier work
T1 sequence (O15382 28-392): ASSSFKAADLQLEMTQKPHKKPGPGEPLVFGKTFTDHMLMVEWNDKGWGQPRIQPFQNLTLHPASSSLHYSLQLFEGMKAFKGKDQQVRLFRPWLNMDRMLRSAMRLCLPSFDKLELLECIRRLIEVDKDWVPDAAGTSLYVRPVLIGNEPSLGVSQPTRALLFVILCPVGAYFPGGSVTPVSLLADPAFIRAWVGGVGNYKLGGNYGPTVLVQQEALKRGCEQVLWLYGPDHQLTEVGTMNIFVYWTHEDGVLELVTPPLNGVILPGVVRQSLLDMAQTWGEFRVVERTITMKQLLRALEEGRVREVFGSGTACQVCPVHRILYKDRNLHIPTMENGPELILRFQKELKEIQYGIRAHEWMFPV

ex vivo rat retinas = experiment: CO2 fixation: H14CO3 incorporation into metabolites by ex vivo retinas; type: cell-based; conditions: for TCA cycle / Asp / Gln / Glu / Total / Lact: half retinas, 37°C, 25 mM H14CO3, 0.2 mM pyruvate, BCAA 0.2 mM each; for Lact: lactate peak includes pyruvate
Protocol: Sprague Dawley rats (200-400g) were used for all experiments. Rats were housed under a 12 hour light/dark cycle, and fed and watered ad libidum. After anaesthetizing the rats with-nembutal (IP), eyes were enucleated and retinas dissected in ice-cold buffer.
Freshly isolated half-retinas were preincubated at 37°C for 3 minutes in buffer A (pH 7.4) containing 118 mM NaCl, 4.7 mM KCl, 2.5 mM CaCl, 1.2 mM KH2PO4, 1.17 mM MgSO4, 20 mM HEPES, 5 mM glucose, 0.05 mM NH4Cl and 25 mM NaH^14CO3. Pyruvate (either 0.2 or 5mM) was also included in the buffer. 1 ml buffer as well as the gas phase within 20 ml vials were equilibrated with 95% O2, 5% CO2. Incubations were initiated by addition of 10 µCi/ml H^14CO3. The vessels were then immediately closed to the atmosphere. Most incubations continued for 20 minutes, although in some preliminary studies, times were varied from 10-60 minutes. Reactions were stopped by removing the half retinas from the buffer and placing them in 2% perchloric acid. The buffer was separately acidified with perchloric acid (final concentration 2%) and unreacted ^14CO2 was allowed to diffuse out of the acidified samples.
The total amount of product (non-volatile carbon 14 metabolites) was determined by measuring the radioactivity in aliquots of the medium and tissue samples. Metabolites in the extracts were separated by Dowex-1 acetate chromatography as previously described: Williamson, J.R., and Corkey, B. (1969) "Methods in Enzymology", Vol, 13, ed. Lowenstein, J.M. (Academic Press) pp 434-513, and quantified by scintillation counting. In most instances, individual metabolite carbon 14 data is reported as the sum of the radioactivity in the medium plus tissue extracts. Complete quantification of ^14C-metabolite amounts in both the retina and in the medium can be found below in Tables I and II.
The chromatographic procedure employed in this example separates glutamine, glutamate, aspartate, and lactic acid. The citric acid cycle intermediates remain on the Dowex columns and are estimated as the difference between the total counts in the sample and the counts that are eluted. Evidence of the validity of this procedure has been reported previously. Before subjecting samples to chromatography, ^14C-pyruvic acid in the samples was converted stoichiometrically to lactate by treating the samples with excess NADH and lactate dehydrogenase. Therefore the single lactate peak reported contains all carbon 14 in both lactate and pyruvate. To determine specific activity of glutamate and glutamine in the retinal samples, the mass amount of the glutamate was measured fluorometrically using a standard enzymatic procedure: Patel, M.S. (1989) in Neuromethods: Carbohydrate and Energy Metabolism, Vol II, eds. Boulton, A.A and Baker G.D. (The Humana Press, Inc.) pp 309-340. The mass amount of glutamine was measured after chromatographic separation from glutamate followed by a luminometric determination previously described. ATP and creatine phosphate were measured fluorometrically using an enzymatic assay.
Data are reported in text and figures by determining the dpm/mg in a particular metabolite and dividing by the specific activity of medium HCO3. Therefore all data are reported as nmoles of H^14CO3/mg protein for any given metabolite.

[1] = system: freshly dissected rat retinas; experiment: Synthesis of leucine in freshly dissected retinas; type: cell-based; conditions: data not shown
BCATc = biological target: T2, BCATc (Homo sapiens, UniProt P54687); conditions: cited from earlier work
T2 sequence (P54687 1-386): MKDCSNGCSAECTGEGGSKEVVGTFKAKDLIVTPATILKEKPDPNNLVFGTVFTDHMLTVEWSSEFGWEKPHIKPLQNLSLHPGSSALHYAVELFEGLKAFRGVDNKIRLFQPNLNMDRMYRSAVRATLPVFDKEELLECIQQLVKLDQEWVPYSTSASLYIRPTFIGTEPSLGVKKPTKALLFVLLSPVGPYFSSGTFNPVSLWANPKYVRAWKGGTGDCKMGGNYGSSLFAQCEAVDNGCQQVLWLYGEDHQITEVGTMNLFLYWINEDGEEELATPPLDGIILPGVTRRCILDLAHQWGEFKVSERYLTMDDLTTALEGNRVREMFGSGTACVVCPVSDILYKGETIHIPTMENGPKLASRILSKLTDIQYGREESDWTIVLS

[2] = 0, 0.2, 1, or 5 mM GBP, 20 minutes, Figure 5
[3] = compartment in (retina), 20 min, GBP 1 mM
[4] = compartment out (medium), 20 min, GBP 1 mM
[5] = sum of medium plus tissue, 20 min, GBP 1 mM

For NCC1(CC(=O)O)CCCCC1 [GBP, gabapentin], the “inhibition of BCATm” value (BCATm) is listed as “not”, the “extent of inhibition of the synthesis of ^14C-glutamate plus ^14C-glutamine on increasing the concentration over 1 mM” value (ex vivo rat retinas; [2]) is listed as “did not significantly increase” and the “formation of citric acid cycle intermediates, lactate and pyruvate” value (ex vivo rat retinas; [2]) is listed as “no influence”. The “formation of ^14C-glutamate plus ^14C-glutamine” value (ex vivo rat retinas; 1 mM GBP plus 200 µM each of leucine, isoleucine and valine) was 89 % of control, the “formation of ^14C-glutamate plus ^14C-glutamine” value (ex vivo rat retinas; 1 mM GBP plus 200 µM each of leucine, isoleucine and valine, p<0.01 versus GBP alone) was 2.84 ± 1.15 nmol/mg and the “formation of ^14C-glutamate plus ^14C-glutamine” value (ex vivo rat retinas; 1 mM GBP, 20 min, 0.2 mM pyruvate, p<0.001) was 71 % of control. The “formation of ^14C-glutamate plus ^14C-glutamine” value (ex vivo rat retinas; 1 mM GBP, 20 min, 0.2 mM pyruvate, control 3.18 ± 0.12) was 2.26 ± 0.05 nmol/mg, the “incorporation of carbon 14 into lactate and citric acid cycle intermediates” value (ex vivo rat retinas; 1 mM GBP, control 1.93 ± .06, increase not significant) was 2.12 ± 0.13 nmoles of H^14CO3/mg protein and the “H^14CO3 incorporation into lactate and citric acid cycle intermediates” value (ex vivo rat retinas; GBP 1 mM) was “without slowing”. The “Inhibition of de novo glutamate synthesis after addition of BCAA” value (ex vivo rat retinas; GBP 1 mM plus 0.6 mM BCAA) was “reversed”, the inhibition at 1000 µM (ex vivo rat retinas; Rattus norvegicus, GBP 1 mM, read-out: inhibited synthesis of ^14C-glutamate plus ^14C-glutamine from H^14CO3) was 31% and the TCA cycle (ex vivo rat retinas; compartment in (retina), estimated as total counts minus eluted counts, 20 min, GBP 1 mM) was 1.514 ± 0.103 nmoles of H^14CO3/mg protein. For the same compound, the Asp (ex vivo rat retinas; [3]) was 0.549 ± 0.019 nmoles of H^14CO3/mg protein, the Gln (ex vivo rat retinas; [3]) was 0.389 ± 0.026 nmoles of H^14CO3/mg protein and the Glu (ex vivo rat retinas; [3]) was 1.324 ± 0.025 nmoles of H^14CO3/mg protein. The Total (ex vivo rat retinas; [3]) was 3.902 ± 0.122 nmoles of H^14CO3/mg protein, the Lact (ex vivo rat retinas; [3]) was 0.089 ± 0.006 nmoles of H^14CO3/mg protein and the Asp (ex vivo rat retinas; [4]) was 0.035 ± 0.003 nmoles of H^14CO3/mg protein. The Gln (ex vivo rat retinas; [4]) was 0.545 ± 0.024 nmoles of H^14CO3/mg protein, the Glu (ex vivo rat retinas; [4]) was 0.008 ± 0.002 nmoles of H^14CO3/mg protein and the TCA cycle (ex vivo rat retinas; [4]) was 0 nmoles of H^14CO3/mg protein. For the same compound, the Total (ex vivo rat retinas; [4]) was 1.066 ± 0.028 nmoles of H^14CO3/mg protein, the Lact (ex vivo rat retinas; [4]) was 0.516 ± 0.030 nmoles of H^14CO3/mg protein and the Asp (ex vivo rat retinas; [5]) was 0.584 ± 0.022 nmoles of H^14CO3/mg protein. The Gln (ex vivo rat retinas; [5]) was 0.934 ± 0.036 nmoles of H^14CO3/mg protein, the Glu (ex vivo rat retinas; [5]) was 1.332 ± 0.025 nmoles of H^14CO3/mg protein and the TCA cycle (ex vivo rat retinas; [5]) was 1.514 ± 0.103 nmoles of H^14CO3/mg protein. For the same compound, the Total (ex vivo rat retinas; [5]) was 4.968 ± 0.028 nmoles of H^14CO3/mg protein, the Lact (ex vivo rat retinas; [5]) was 0.605 ± 0.028 nmoles of H^14CO3/mg protein and the synthesis of leucine [1] was “inhibits”. The “inhibition of BCATc” value (BCATc) was “inhibits”.
